Experimental data as given in patent US20250304576A1 (Cancer Research Technology Limited, priority 2022, published 2025).

Key:
[1] = target: T1, IKBKB (IKKβ) (Homo sapiens, UniProt O14920); experiment: Z'-LYTE IKKβ assay (Life Technologies); format: biochemical; conditions: Life Technologies assay
T1 construct: purchased Life Technologies (assay performed by the vendor)
T1 sequence (O14920 1-756): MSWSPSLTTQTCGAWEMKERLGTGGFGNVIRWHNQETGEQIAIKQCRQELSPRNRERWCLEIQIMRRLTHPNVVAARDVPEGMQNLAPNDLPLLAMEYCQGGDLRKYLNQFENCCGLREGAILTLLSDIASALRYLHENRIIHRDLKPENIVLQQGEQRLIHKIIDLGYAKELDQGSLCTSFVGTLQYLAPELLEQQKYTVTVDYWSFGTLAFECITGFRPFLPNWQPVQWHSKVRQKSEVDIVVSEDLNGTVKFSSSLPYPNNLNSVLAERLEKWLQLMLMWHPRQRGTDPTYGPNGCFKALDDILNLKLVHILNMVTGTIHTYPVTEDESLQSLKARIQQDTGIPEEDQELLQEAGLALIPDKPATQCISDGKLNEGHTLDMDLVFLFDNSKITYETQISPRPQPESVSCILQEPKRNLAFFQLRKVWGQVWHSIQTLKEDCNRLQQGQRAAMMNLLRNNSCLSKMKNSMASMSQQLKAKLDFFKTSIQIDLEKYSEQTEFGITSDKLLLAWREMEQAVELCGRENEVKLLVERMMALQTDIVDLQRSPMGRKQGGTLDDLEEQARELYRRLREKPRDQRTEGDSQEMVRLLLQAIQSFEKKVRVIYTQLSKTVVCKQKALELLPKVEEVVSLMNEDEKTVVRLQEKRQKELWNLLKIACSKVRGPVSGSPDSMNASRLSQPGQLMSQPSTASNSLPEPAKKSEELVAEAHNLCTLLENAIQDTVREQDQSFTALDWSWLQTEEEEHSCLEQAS
Description: IKKα and IKKβ inhibitory activity was determined using three different assays: a dissociation enhanced ligand fluorescent immunoassay (DELFIA) based on the protocol of HTScan™ IKKβ Kinase Assay (Cell Signaling Technology, USA); an Adapta IKKα assay (performed by Life Technologies); a Z′-LYTE™ IKKβ assay (performed by Life Technologies).
The reaction was performed in low volume NBS, black 384-well plates (Corning model 4514).
The test compounds were screened in 1% DMSO (final) in the well. For 10 point titrations, 3-fold serial dilutions were conducted from the starting concentration of 50 mM.
The 2× IKBKB (IKKβ)/Ser/Thr 05 mixture was prepared in 50 mM HEPES pH 7.5, 0.01% BRIJ-35, 10 mM MgCl2, 1 mM EGTA. The final 10 μL Kinase Reaction consisted of 0.62-4 ng IKBKB (IKKβ) and 2 μM Ser/Thr 05 in 50 mM HEPES pH 7.5, 0.01% BRIJ-35, 10 mM MgCl2, 1 mM EGTA.
5 μL of 2× Kinase reaction was incubated with 2.5 μL of ATP solution diluted to a 4× working concentration in Kinase Buffer (50 mM HEPES pH 7.5, 0.01% BRIJ-35, 10 mM MgCl2, 1 mM EGTA) in the presence of […] of 100× test compound in 100% DMSO and 2.4 μL of Kinase buffer.
The resulting kinase reaction was allowed to incubate for 1 hour at room temperature before 5 μL of a 1:64 dilution of Development Reagent B was added and the resulting Development Reaction was incubated for another hour at room temperature. Then the plate was read on a fluorescence plate reader and the data analysed.
A ratiometric method, which calculated the Emission Ratio of donor emission (i.e. coumarin) to acceptor emission (i.e. fluorescein) after excitation of the donor fluorophore at 400 nm, was used to quantitate reaction progress, as shown in the equation below.

[2] = test system: PC3M cells; experiment: Cell viability, alamarBlue assay, PC3M cells; format: cell-based; conditions: treatment for 48 hours
Description: (§1) PC3, PC3M, LNCaP Al, cells were grown in RPMI 1640 media and PANC1 and MiaPac-2 cells were grown in Dulbecco's Modified Eagle's Media (DMEM) which was supplemented with 10% (v/v) Foetal Calf Serum (FCS) (Charcoal-stripped for LNCaP Als), L-glutamine ([…]) and penicillin/streptomycin (250 units/ml; 100 μg/ml). All cells were incubated in a humidified atmosphere at 37° C. and 5% (v/v) CO2. Cells were cultured as a monolayer in 10 ml media in […] vented flasks and grown until subculture was required.
(§2) Cell viability determination: Cells (1000 cells/100 μl) were plated into 96 well plates and incubated for 24 hours at 37° C. and 5% (v/v) CO2 before being treated with SU1433. After incubation with SU1433 for 48 h, cell viability was measured using the alamarBlue® Assay (Thermofisher, UK). The media was removed and replaced with a 1:10 media to alamar blue solution. After a 1 h incubation at 37° C. and 5% CO2, the fluorescence was measured at 530-560 nm excitation wavelength and 590 nm emission wavelength in a fluorescence plate reader. All treatment were measured in duplicate wells and repeated at least 3 times. The results represent the fractional survival of untreated controls±SD.

[3] = test system: LNCaP cells; experiment: Cell viability, alamarBlue assay, LNCaP cells; format: cell-based; conditions: treatment for 48 hours
Description: as §1, §2

[4] = test system: PANC1 cells; experiment: Cell viability, alamarBlue assay, PANC1 cells; format: cell-based; conditions: treatment for 48 hours
Description: as §1, §2

[5] = test system: MiaPaca-2 cells; experiment: Cell viability, alamarBlue assay, MiaPaca-2 cells; format: cell-based; conditions: treatment for 48 hours
Description: as §1, §2

[6] = test system: PC3M xenografts; experiment: In vivo assessment in nude mice bearing PC3M xenografts; conditions: once daily i.p. dose of 50 mg/kg, over 21 days
Description: Xenografts were established in nude mice by subcutaneous injection of 5×10^6 PC3M-Luc-C6 cells. After 8 days, mice bearing tumours of approximately 60 mm^3 in volume were randomised into 3 treatment groups of 8 mice in each. One group of mice received intraperitoneal injection (i.p.) of 50 mg/kg SU1433 once daily dissolved in a vehicle of 5% (v/v) DMSO, 5% (v/v) solutol HS15 and 15% (w/v) hydroxypropyl-p-cyclodextrin in water for injection (90%) for a total of 21 days. Another group received once daily i.p. injection of the vehicle (100 μL) alone whilst the last group received no treatment. To monitor potential toxicity, body weight was measured daily, and experimental animals were evaluated for signs of distress using standard guidelines. Mice whose xenografts reached 1,900 mm^3 were euthanised. Subcutaneous tumours were measured with calipers immediately before treatment and every 2 or 3 days thereafter. On the assumption of ellipsoidal geometry, diameter measurements were converted to an approximate volume by multiplying half the longest diameter by the square of the mean of the 2 shorter diameters. For every animal, relative tumour volume (volume at any time point divided by volume immediately before treatment) was plotted against time, and the area under the time-volume curves was determined by trapezoidal approximation. […]

- IC50 [1]: 2300 nM
Compound: CC(C)(C)C#Cc1cc(-c2ccnc(N)c2)cc2c(N)n[nH]c12 [Example 137, 5-(2-Aminopyridin-4-yl)-7-(3,3-dimethylbut-1-yn-1-yl)-1H-indazol-3-amine]
- viability of PC3M cells [2]: reduced the viability
- viability of LNCaP cells [3]: reduced the viability
- viability of PANC1 cells [4]: reduced the viability
- viability of MiaPaca-2 cells [5]: reduced the viability
- inhibition of tumour growth [6]: approximately 60%
